Source: patent US8063025B2, “Nucleoside prodrugs and uses thereof” (Metabasis Therapeutics, Inc., priority 2007, dated 2011)
Where two headings read alike, the source gives them in different places. Values belong to the compound of their own block, whether it stands above or below them.

Columns and labels:
rat hepatocytes = experiment: NTP generation in rat hepatocytes; assay type: in vitro ADME, male Wistar rats; conditions: for Rat hepatocyte NTP: Table 2
Description: Hepatocytes were prepared from male Wistar rats (250-300 g) according to the procedure of Berry and Friend (Berry, M. N.; Friend, D. S. J. Cell Biol. 1969, 43, 506-520) as modified by Groen (Groen, A. K.; Sips, H. J.; Vervoom, R. C.; Tager, J. M. Eur. J. Biochem. 1982, 122, 87-93). Hepatocytes (20 mg/mL wet weight, >85% trypan blue viability) were incubated at 37° C. in 2 mL of Krebs-bicarbonate buffer containing 20 mM glucose, and 1 mg/mL BSA for 2 h in the presence of 10 μM nucleoside or prodrug (from 10 mM stock solutions in DMSO, n>4).
Following the incubation of 4′-azidocytidine analogues, 1600 μL aliquot of the cell suspension was centrifuged and 300 μL of acetonitrile was added to the pellet, vortexed and sonicated until the pellet broke down. Then 200 μL of water was added to make a 60% acetonitrile solution. After 10 min centrifugation at 14,000 rpm, the resulting supernatant was transferred to a new vial and evaporated to near dryness in a Savant SpeedVac Plus at room temperature. The dried residue was reconstituted with 200 μL of water and the mixture was centrifuged for 10 min at 14,000 rpm. A mixture of 35 μL aliquot of supernatant and 35 μL of mobile phase A (20 mM N—N-dimethylhexylamine and 10 mM propionic acid in 20% methanol) was analyzed by LC-MS/MS (Applied Biosystems, API 4000) equipped with an Agilent 1100 binary pump and a LEAP injector. NTP was detected by using MS/MS mode (M-/78.8) and quantified based on comparison to a standard of 2′-C-methyladenosine-5′-triphosphate for 4′-azidocytidine and the compound described in Example 1.
Following incubation of the 4′-azidouridine analogues, 1600 μL aliquot of the cell suspension was centrifuged and 500 μL of acetonitrile containing 0.1 mg/mL dicyclohexylcarbodiimide (DCCD) and 0.1% ammonium hydroxide was added to the pellet and vigorously mixed by vortexing. Liver extracts were analyzed by LC-MS/MS using a Luna NH2 column (5 micron, 2×50 mm, Phenomenex) fitted with a SecurityGuard C18 guard column (5 micron, 4.0×2.0 mm, Phenomenex) and eluted with a gradient from mobile phase A (10 mM ammonium acetate in 50% acetonitrile) to B (1 mM ammonium acetate in 50% acetonitrile containing 1% concentrated ammonium hydroxide) at a flow rate of 0.6 mL/min. The injector temperature was set at 4° C. 4′-AUMP, 4′-AUDP, and […] were detected using the MS/MS mode (364.1/150.8 for 4′-AUMP, 444.1/176.8 for 4′-AUDP, and 524.1/158.9 for 4′-AUTP) and quantified by comparison of peak areas to standard curves obtained by spiking known concentrations of the analytes to blank liver extract.

[1] = Evaluation of liver NTP levels in rat; assay type: in vivo, Sprague-Dawley or Wistar rats; conditions: i.v. administration as printed
HCV [2] = conditions: chimpanzee, 7 days, cited from earlier work
HCV [3] = conditions: phase 2 study, 1500 mg BID for 14 days; cited from earlier work
[4] = Rat portal vein pharmacokinetic study; set-up: species or system Male Hanover-Wistar (HW) rats; conditions: in vivo, 7 mg/kg
Description: Pharmacokinetic analysis of the esters was carried out as described in Example 2. The calculated value for % Fhepatic is the ratio of measured of the quantity present in the post-hepatic
[formula] circulation (AUCjugular) to the pre-hepatic concentration (AUCportal). This value reflects uptake of the prodrug by hepatocytes. […] These values reflect observed concentrations of non-esterified drug phosphate 26a. The calculated value % Fgut is the ratio of the concentration
[formula] of 26a observed in the portal vein which directly reflects absorption through the gut compared to the concentration observed in the jugular vein after i.v. administration of the same dose. Increased absorption through the gut will increase the observed % Fgut.
Male Hanover-Wistar (HW) rats were obtained from Charles River Laboratories (Wilmington, Mass.). […] Plasma samples were extracted by protein precipitation and analyzed by liquid chromatography coupled to tandem mass spectrometry (LC/MS/MS) for concentrations of 26b, 26a and 20.
Pharmacokinetic parameters were calculated using a non-compartmental model in Watson software (Watson, Thermo Fisher, Waltham, Mass.). % Fhepatic was calculated from the dose-normalized area under the curve (AUC) values obtained from sampling either the portal or jugular vein after PO administration as follows: […]

[5] = system: hepatitis C virus replicon; conditions: cited from earlier work
[6] = target: T1, HCV polymerase (NS5B570n-Con1) (Hepatitis C virus genotype 1b, UniProt Q9WMX2); experiment: HCV NS5B RNA polymerase activity; assay type: biochemical, HCV Con1 strain
T1 construct: contains a 21 amino acid deletion at the C-terminus relative to the full-length HCV polymerase; 6-histidine (N); made in house; host or cells: E. coli BL21 (DE) pLysS, plasmid pET17b
Description: The enzymatic activity of HCV polymerase (NS5B570n-Con1) was measured as the incorporation of radiolabeled nucleotide monophosphates into acid insoluble RNA products. Unincorporated radiolabeled substrate was removed by filtration and scintillant was added to the washed and dried filter plate containing radiolabeled RNA product. The amount of RNA product generated by NS5B570-Con1 at the end of the reaction was directly proportional to the amount of light emitted by the scintillant.
The N-terminal 6-histidine tagged HCV polymerase, derived from HCV Con1 strain, genotype 1b (NS5B570n-Con1) contains a 21 amino acid deletion at the C-terminus relative to the full-length HCV polymerase and was purified from E. coli strain BL21 (DE) pLysS. The construct, containing the coding sequence of HCV NS5B Con1 (GenBank accession number AJ242654) was inserted into the plasmid construct pET17b, downstream of a T7 promoter expression cassette and transformed into E. coli. […]
The amount of light emitted from the scintillant was converted to counts per minute (CPM) on a Topcount® plate reader (Perkin-Elmer, Energy Range: Low, Efficiency Mode: Normal, Count Time: 1 min, Background Subtract: none, Cross talk reduction: Off).
Data was analyzed in Excel® (Microsoft®) and ActivityBase® (Idbs®). […] All data was expressed as a percentage of the positive control. […]

nucleoside triphosphate levels in treated rat hepatocytes (rat hepatocytes): dose dependent increase
NTP levels after administration to a rat [1]: elevated levels
Compound: [N-]=[N+]=N[C@]1(CO[P@@]2(=O)OCC[C@@H](c3cccc(Cl)c3)O2)O[C@@H](n2ccc(=O)[nH]c2=O)[C@H](O)[C@@H]1O [Example 2, 4′-azido-cis-5′-O-[4-(S)-(3-Chlorophenyl)-2-oxo-1,3,2-dioxaphosphorinan-2-yl]uridine]

Compound: C[C@@]1(O)[C@H](O)[C@@H](CO)O[C@H]1n1ccc2c(N)ncnc21 [MK-0608]
reduction in viral titer (HCV [2]; intravenous dose of 2 mg/kg/day): > 5 log10

Compound: CC(C)C(=O)OC[C@@]1(N=[N+]=[N-])O[C@@H](n2ccc(N)nc2=O)[C@H](OC(=O)C(C)C)[C@@H]1OC(=O)C(C)C [Example R1626]
mean reduction in serum viral titer (HCV [3]): 1.2 log10

circulating diester after oral dosing [4]: no circulating diester is observed
Compound: [N-]=[N+]=N[C@]1(COP2(=O)OCC[C@@H](c3ccc(Br)cc3F)O2)O[C@@H](n2ccc(=O)[nH]c2=O)[C@H](O)[C@@H]1O (some centres unmarked) [Example 43]

nucleoside triphosphate levels in treated rat hepatocytes (rat hepatocytes): dose dependent increase
NTP levels after administration to a rat [1]: very low levels
Compound: [N-]=[N+]=N[C@]1(CO[P@@]2(=O)OCC[C@@H](c3cccc(Cl)c3)O2)O[C@@H](n2ccc(N)nc2=O)[C@H](O)[C@@H]1O [Example 1, 4′-azido-cis-5′-O-[4-(S)-(3-chlorophenyl)-2-oxo-1,3,2-dioxaphosphorinan-2-yl]-cytidine]

Compound: [N-]=[N+]=N[C@]1(CO)O[C@@H](n2ccc(N)nc2=O)[C@H](O)[C@@H]1O [Example R1479, 4′-azidocytidine]
Rat hepatocyte NTP (rat hepatocytes; 10 μM): <LOQ
nmol NTP/g @ 10 μM (±SEM) (rat hepatocytes; rat hepatocytes, 10 μM, 2 h, Table 4): <LOQ
EC50 [5]: 1280 nM
potency in the cell-based replicon assay [5]: reasonable potency

Compound: [N-]=[N+]=N[C@]1(CO)O[C@@H](n2ccc(=O)[nH]c2=O)[C@H](O)[C@@H]1O [4′-azidouridine]
Rat hepatocyte NTP (rat hepatocytes; 10 μM): <LOQ
EC50 [5]: > 100000 nM
potency in the cell-based replicon assay [5]: inactive

Compound: C[C@H](NP(=O)(OC[C@@]1(N=[N+]=[N-])O[C@@H](n2ccc(=O)[nH]c2=O)[C@H](O)[C@@H]1O)Oc1cccc2ccccc12)C(=O)OCc1ccccc1 (some centres unmarked) [Example R0142]
EC50 [5]: 220 nM

Compound: [N-]=[N+]=N[C@]1(COP(=O)(O)O)O[C@@H](n2ccc(=O)[nH]c2=O)[C@H](O)[C@@H]1O [4′-AU monophosphate]
IC50 [6]: 218 nM

Compound: CC(C)C(N)C(=O)O[C@@H]1[C@@H](CO)O[C@@H](n2ccc(N)nc2=O)[C@]1(C)O (some centres unmarked) [NM283]
reduction in viral titer (HCV [2]; 16.6 mg/kg/day): 1.15 log10
